Measurements from patent US12570655B2, “Cysteine covalent modifiers of AKT1 and uses thereof” (Terremoto Biosciences, Inc., priority 2023, dated 2026).
Like-named read-outs stand apart in the source and are kept apart here.

Key:
[1] = system: LAPC4 prostate cancer cells; assay: Antiproliferative effects in LAPC4 cells (CellTiter Glo); assay type: cell-based; conditions: LAPC4 cells (AKT1 E17K allele), read-out: LAPC4 proliferation IC50
Procedure: Antiproliferative Effects in LAPC4 Cells.
LAPC4 prostate cancer cells (Klein, K. A. et al. Nat Med 1997, 3, 402-408), which express the AKT1 E17K allele, were grown in IMDM media (Hyclone) supplemented with 12% FBS+1% P/S. To assess compound effects on growth, 1,000 cells/well were seeded in 384 well assay plates, incubated with compound dilutions dissolved in DMSO. After 72 h, intracellular ATP content was assessed with CellTiter Glo reagent (Promega) according to the manufacturer's instructions. IC50 values were calculated by fitting luminescence values to a log(inhibitor) vs. response Hill equation.

AKT1 E17K = molecular target: T1, AKT1 E17K (Homo sapiens, UniProt P31749, E17K); assay: Live cell AKT1 E17K target engagement by NanoBRET competitive probe displacement; assay type: cell-based; conditions: HEK293 cells transfected with kinase-NanoLuciferase fusion, 2 h at 37° C.
T1 construct: expressed in transfected cells; host or cells: HEK293
Procedure: Determining Live Cell AKT1 E17K, AKT1 WT, and AKT2 Target Engagement by NanoBRET Competitive Probe Displacement.
Live cell target engagement assays were performed as described (Vasta, J. D. et al. Cell Chem Biol 2018, 25(11), 206-214). Briefly, HEK293 cells were transfected with plasmids encoding kinase-NanoLuciferase fusion proteins overnight. Cells were then treated with serial dilutions of compound and an ˜EC50 concentration of fluorescently-tagged ATP-competitive tracer (Promega). After incubation for 2 h at 37° C., luciferase substrate and extracellular luciferase inhibitor were added to all wells, and luminescent intensity at 460 nm and 600 nm were measured on a multimode plate-reader. The ratio of E600/E460 was calculated to give the tracer engagement signal (BRET). IC50 values were calculated by fitting BRET values to a log(inhibitor) vs. response Hill equation.

T1 sequence (P31749 whole entry E17K, the tested form may be a part): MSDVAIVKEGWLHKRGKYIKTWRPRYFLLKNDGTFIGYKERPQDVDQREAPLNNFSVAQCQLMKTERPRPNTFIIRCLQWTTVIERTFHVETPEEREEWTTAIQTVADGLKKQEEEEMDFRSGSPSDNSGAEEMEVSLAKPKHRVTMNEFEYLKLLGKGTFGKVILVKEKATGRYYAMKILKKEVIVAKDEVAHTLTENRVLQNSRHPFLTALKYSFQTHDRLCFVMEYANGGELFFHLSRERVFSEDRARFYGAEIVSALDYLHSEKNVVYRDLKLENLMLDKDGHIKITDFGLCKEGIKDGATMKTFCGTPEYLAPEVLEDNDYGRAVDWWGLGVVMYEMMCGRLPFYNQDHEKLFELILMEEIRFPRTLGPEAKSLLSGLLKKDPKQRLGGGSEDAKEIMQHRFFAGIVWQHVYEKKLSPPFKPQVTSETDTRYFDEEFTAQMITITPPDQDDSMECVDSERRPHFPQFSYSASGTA

Structure (SMILES)	IC50 ([1]; Homo sapiens, LAPC4, 72 h)	IC50 (AKT1 E17K)	IC50 ([1]; 72 h)
C=CC(=O)N1CCCC(c2cn([C@H]3CCc4cc(-n5c(-c6cccnc6N)nc6ccc(-n7cccn7)nc65)ccc43)nn2)C1 (single isomer, unassigned) [Example 167, 1-((*)-3-(1-((S)-5-(2-(2-aminopyridin-3-yl)-5-(1H-pyrazol-1-yl)-3H-imidazo[4,5-b]pyridin-3-yl)-2,3-dihydro-1H-inden-1-yl)-1H-1,2,3-triazol-4-yl)piperidin-1-yl)prop-2-en-1-one]	479 nM	37.1 nM	
C=CC(=O)N1C[C@H]2COC[C@@H](C1)C2N[C@H]1CCc2cc(-n3c(-c4cccnc4N)nc4ccc(C5CC5)nc43)ccc21 (single isomer, unassigned) [Example 171, 1-((1R,5S,9*)-9-(((S)-5-(2-(2-aminopyridin-3-yl)-5-cyclopropyl-3H-imidazo[4,5-b]pyridin-3-yl)-2,3-dihydro-1H-inden-1-yl)amino)-3-oxa-7-azabicyclo[3.3.1]nonan-7-yl)prop-2-en-1-one]		> 1000 nM	6610 nM
C=CC(=O)N1CCC(N[C@@H]2c3ccc(-n4c(-c5cccnc5N)nc5ccc(C6CC6)nc54)cc3CC2F)CC1 (single isomer, unassigned) [Example 202, 1-(4-(((1R,2*)-5-(2-(2-aminopyridin-3-yl)-5-cyclopropyl-3H-imidazo[4,5-b]pyridin-3-yl)-2-fluoro-2,3-dihydro-1H-inden-1-yl)amino)piperidin-1-yl)prop-2-en-1-one]	3090 nM	111 nM	
C=CC(=O)N1CCC(N[C@@H]2c3c(F)cc(-n4c(-c5cccnc5N)nc5ccc(-n6cccn6)nc54)cc3CC2F)CC1 (single isomer, unassigned) [Example 341, 1-(4-(((1R,2*)-5-(2-(2-aminopyridin-3-yl)-5-(1H-pyrazol-1-yl)-3H-imidazo[4,5-b]pyridin-3-yl)-2,7-difluoro-2,3-dihydro-1H-inden-1-yl)amino)piperidin-1-yl)prop-2-en-1-one]		80.3 nM	
C=CC(=O)N1CCC(N[C@H]2CCc3cc(-n4c(-c5cccnc5N)nc5ccc(-c6ccccc6)nc54)ccc32)CC1 [Example 209, (S)-1-(4-((5-(2-(2-aminopyridin-3-yl)-5-phenyl-3H-imidazo[4,5-b]pyridin-3-yl)-2,3-dihydro-1H-inden-1-yl)amino)piperidin-1-yl)prop-2-en-1-one]	17 nM	2.29 nM	
C=CC(=O)N1CCC(N[C@H]2CCc3cc(-n4c(C5CC5)nc5ccc(-n6cccn6)nc54)ccc32)CC1 [Example 248, (S)-1-(4-((5-(2-cyclopropyl-5-(1H-pyrazol-1-yl)-3H-imidazo[4,5-b]-430-pyridine-3-yl)-2,3-dihydro-1H-inden-1-yl)amino)piperidin-1-yl)prop-2-en-1-one]	> 10000 nM	> 1000 nM	
C=CC(=O)N1CCC(N[C@H]2CCc3cc(-n4c(-c5cccnc5N)nc5ccc(CN6CCOCC6)nc54)ccc32)CC1 [Example 260, 1-(4-{[(1S)-5-[2-(2-aminopyridin-3-yl)-5-(morpholin-4-ylmethyl)imidazo[4,5-b]pyridin-3-yl]-2,3-dihydro-1H-inden-1-yl]amino}piperidin-1-yl)prop-2-en-1-one]	> 10000 nM	> 1000 nM	
C=CC(=O)N1Cc2cccc(C(=O)N[C@H]3CCc4cc(-n5c(-c6cccnc6N)nc6ccc(-n7cccn7)nc65)ccc43)c2C1 [Example 266, (S)-2-acryloyl-N-(5-(2-(2-aminopyridin-3-yl)-5-(1H-pyrazol-1-yl)-3H-imidazo[4,5-b]pyridin-3-yl)-2,3-dihydro-1H-inden-1-yl)isoindoline-4-carboxamide]	4.4 nM	3.34 nM	
C=CC(=O)N1CCC(N[C@H]2CCc3cc(-n4c(-c5cccnc5N)nc5ccc(N6C7CCC6COC7)nc54)ccc32)CC1 [Example 278, 1-(4-{[(1S)-5-[2-(2-aminopyridin-3-yl)-5-{3-oxa-8-azabicyclo[3.2.1]octan-8-yl}imidazo[4,5-b]pyridin-3-yl]-2,3-dihydro-1H-inden-1-yl]amino}piperidin-1-yl)prop-2-en-1-one]	1850 nM	164 nM	
C=CC(=O)N1CCC(N[C@H]2CCc3cc(-n4c(-c5cccnc5N)nc5ccc(C6COC6)nc54)ccc32)CC1 [Example 279, 1-(4-{[(1S)-5-[2-(2-aminopyridin-3-yl)-5-(oxetan-3-yl)imidazo[4,5-b]pyridin-3-yl]-2,3-dihydro-1H-inden-1-yl]amino}piperidin-1-yl)prop-2-en-1-one]	1570 nM	168 nM	
C=CC(=O)N1CCC(N[C@H]2CCc3cc(-n4c(-c5ccccc5C#N)nc5ccc(-n6cccn6)nc54)ccc32)CC1 [Example 284, 2-{3-[(1S)-1-{[1-(prop-2-enoyl)piperidin-4-yl]amino}-2,3-dihydro-1H-inden-5-yl]-5-(pyrazol-1-yl)imidazo[4,5-b]pyridin-2-yl}benzonitrile]	7210 nM	273 nM	
C=CC(=O)N1CCC(N[C@H]2CCc3cc(-n4c(-c5ccccc5C(F)F)nc5ccc(-n6cccn6)nc54)ccc32)CC1 [Example 285, (S)-1-(4-((5-(2-(2-(difluoromethyl)phenyl)-5-(1H-pyrazol-1-yl)-3H-imidazo[4,5-b]pyridin-3-yl)-2,3-dihydro-1H-inden-1-yl)amino)piperidin-1-yl)prop-2-en-1-one]	1550 nM	604 nM	

Next, values leading:

IC50 ([1]; Homo sapiens, LAPC4, 72 h)	IC50 (AKT1 E17K)	IC50 ([1]; 72 h)	Structure (SMILES)
	152 nM	3160 nM	C=CC(=O)N1CCC(N[C@@H]2c3ccc(-n4c(-c5cccnc5N)nc5ccc(-n6cccn6)nc54)cc3CC2C)CC1 (single isomer, unassigned) [Example 182, 1-(4-(((1S,2*)-5-(2-(2-aminopyridin-3-yl)-5-(1H-pyrazol-1-yl)-3H-imidazo[4,5-b]pyridin-3-yl)-2-methyl-2,3-dihydro-1H-inden-1-yl)amino)piperidin-1-yl)prop-2-en-1-one]
	4.56 nM	42.3 nM	C=CC(=O)N1CCC(N[C@H]2CCc3cc(-n4c(-c5cccnc5N)nc5ccc(-n6cccn6)nc54)ccc32)C[C@H]1C(F)F (single isomer, unassigned) [Example 215, 1-((2S,4*)-4-(((S)-5-(2-(2-aminopyridin-3-yl)-5-(1H-pyrazol-1-yl)-3H-imidazo[4,5-b]pyridin-3-yl)-2,3-dihydro-1H-inden-1-yl)amino)-2-(difluoromethyl)piperidin-1-yl)prop-2-en-1-one]
> 10000 nM	380 nM		C=CC(=O)N1CC(F)C(N[C@H]2CCc3cc(-n4c(-c5cccnc5N)nc5ccc(-n6cccn6)nc54)ccc32)C(F)C1 (single isomer, unassigned) [Example 220, 1-((3*,4*,5*)-4-(((S)-5-(2-(2-aminopyridin-3-yl)-5-(1H-pyrazol-1-yl)-3H-imidazo[4,5-b]pyridin-3-yl)-2,3-dihydro-1H-inden-1-yl)amino)-3,5-difluoropiperidin-1-yl)prop-2-en-1-one]
	567 nM	> 10000 nM	C=CC(=O)N1CC(F)C(N[C@H]2CCc3cc(-n4c(-c5cccnc5N)nc5ccc(-n6cccn6)nc54)ccc32)C(F)C1 (single isomer, unassigned) [Example 221, 1-((3*,4*,5*)-4-(((S)-5-(2-(2-aminopyridin-3-yl)-5-(1H-pyrazol-1-yl)-3H-imidazo[4,5-b]pyridin-3-yl)-2,3-dihydro-1H-inden-1-yl)amino)-3,5-difluoropiperidin-1-yl)prop-2-en-1-one]
	> 1000 nM	> 10000 nM	C=CC(=O)N1CC(F)C(N[C@H]2CCc3cc(-n4c(-c5cccnc5N)nc5ccc(-n6cccn6)nc54)ccc32)C(F)C1 (single isomer, unassigned) [Example 222, 1-((3*,5*)-4-(((S)-5-(2-(2-aminopyridin-3-yl)-5-(1H-pyrazol-1-yl)-3H-imidazo[4,5-b]pyridin-3-yl)-2,3-dihydro-1H-inden-1-yl)amino)-3,5-difluoropiperidin-1-yl)prop-2-en-1-one]
	> 1000 nM	> 10000 nM	C=CC(=O)N1CC(F)C(N[C@H]2CCc3cc(-n4c(-c5cccnc5N)nc5ccc(-n6cccn6)nc54)ccc32)C(F)C1 (single isomer, unassigned) [Example 223, 1-((3*,5*)-4-(((S)-5-(2-(2-aminopyridin-3-yl)-5-(1H-pyrazol-1-yl)-3H-imidazo[4,5-b]pyridin-3-yl)-2,3-dihydro-1H-inden-1-yl)amino)-3,5-difluoropiperidin-1-yl)prop-2-en-1-one]
3820 nM	287 nM		C=CC(=O)N1CCN(C2CCc3cc(-n4c(-c5cccnc5N)nc5ccc(-n6cccn6)nc54)ccc32)CC1 (stereo not shown) [Example 204, 1-(4-{5-[2-(2-aminopyridin-3-yl)-5-(pyrazol-1-yl)imidazo[4,5-b]pyridin-3-yl]-2,3-dihydro-1H-inden-1-yl}piperazin-1-yl)prop-2-en-1-one]
